The results in this text go back to patent US20100094001A1, “C[…]-IMPROVED CH[…] DERIVATIVE AND PROCESS FOR PRODUCING SAME” (Eisai R&D Management Co., Ltd., priority 2007, published 2010).

This data set is described as follows: Stability experiment for the addition of tri-n-butylamine: sealed storage at 40-50° C., content (purity) by 1H-NMR. It is filed as physicochemical. On the procedure:
From the point of view of securing storage stability, for the amount of the first tertiary amine added, at least 2.0 mol % is added based on Compound (6), preferably at least 3.0 mol %, more preferably at least 4.0 mol %, and even more preferably at least 5.0 mol %. Note that evaluation of storage stability can be carried out by calculation of peak area derived from Compound (6) by gas chromatography or high performance liquid chromatography or calculation of integration value by 1H-NMR or P-NMR measurement before and after storage.
Potassium di-tert-butyl phosphate (6 g), dipotassium hydrogenphosphate (16.6 g), tetrabutylammonium hydrogen sulfate (0.81 g), tert-butyl methyl ether (28 mL) and water (21 mL) were added in a 100 mL two-neck round bottom flask equipped with a thermometer, and stirred under cooling with a water bath. At an internal temperature of 21° C., a solution of chloromethyl chlorosulfonate (5.88 g) dissolved in tert-butyl methyl ether (5.88 mL) was added dropwise over two hours at an internal temperature of 25° C. or lower. After termination of the drop wise addition, the solution was stirred for two hours, water (21 mL) and tert-butyl methyl ether (28 mL) were added thereto, the lower layer was separated and the organic layer was washed with an aqueous solution of 2M dipotassium hydrogen phosphate (21 mL). After washing twice with water (21 mL), bath temperature was set to 35° C., and the solution was concentrated under a reduced pressure to obtain 5.38 g of the title compound (yield: 86%). […]
As a result, contents (purity) of respectively 92% and 96% prior to storage were 89% and 70% after sealed storage at 40° C. for 12 hours and further at 50° C. for 12 hours, and were 87% and 0% (completely degraded) after sealed storage further at 50° C. for 10 hours, such that the one added with tri-n-butylamine was stable. The content (purity) was calculated by 1H-NMR measurements with 4-thiomethyl acetophenone as internal standard substance.

Take `CC(C)(C)OP(=O)(OCCl)OC(C)(C)C` [Not added, di-tert-butyl chloromethyl phosphate]: the “Content (%)” value is given as 96% (Initial (prior to storage)); 70% (Sealed storage at 40° C. for 12 hours then further at 50° C. for 12 hours); 0% (Sealed storage further at 50° C. for 10 hours (after 40° C. 12 hours and 50° C. 12 hours)).
